Experimental data as given in US20080234288A1, “Hcv Inhibiting Sulfonamides” (priority 2003, published 2008).
Where a name gives a salt, the structure may show the parent alone.

system: HCV replicon (NS3-NS5B regions of HCV type 1b) in Huh-7 luc/neo cells; test: HCV replicon assay, stable replicon cell reporter assay (Huh-Luc, luciferase); type: cell-based; conditions: Hepatitis C virus, Huh-7, 72 h, incubation of three days, luciferase activity
Text: The compounds of the present invention were examined for activity in the inhibition of HCV RNA replication in a cellular assay. […] The cellular assay was based on a bicistronic expression construct, as described by Lohmann et al. (1999) Science vol. 285 pp. 110-113 with modifications described by Krieger et al. (2001) Journal of Virology 75: 4614-4624, in a multi-target screening strategy. In essence, the method is as follows.
The assay utilized the stably transfected cell line Huh-7 luc/neo (hereafter referred to as Huh-Luc; kindly provided by Dr Ralf Bartenschlager, Reblikon GmBh, Germany). This cell line harbors an RNA encoding a bicistronic expression construct comprising the wild type NS3-NS5B regions of HCV type 1b translated from an Internal Ribosome Entry Site (IRES) from encephalomyocarditis virus (EMCV), preceded by a reporter portion (FfL-luciferase), and a selectable marker portion (neo^R, neomycine phosphotransferase). The construct was bordered by 5′ and 3′ NTRs (non-translated regions) from HCV type 1b. Continued culture of the replicon cells in the presence of G418 (neo^R) is dependent on the replication of the HCV RNA. The stably transfected replicon cells that express HCV RNA, which replicates autonomously and to high levels, encoding inter alia luciferase, were used for screening the antiviral compounds.
The replicon cells were plated in 384 well plates in the presence of the test and control compounds which were added in various concentrations. Following an incubation of three days, HCV replication was measured by assaying luciferase activity (using standard luciferase assay substrates and reagents and a Perkin Elmer ViewLux™ ultraHTS microplate imager). Replicon cells in the control cultures have high luciferase expression in the absence of any inhibitor. The inhibitory activity of the compound on luciferase activity was monitored on the Huh-Luc cells, enabling a dose-response curve for each test compound. EC50 values were then calculated, which value represents the amount of the compound required to decrease by 50% the level of detected luciferase activity, or more specifically, the ability of the genetically linked HCV replicon RNA to replicate (Table 1).

CC(C)CN(CC(O)C(Cc1ccccc1)NC(=O)OCc1cncs1)S(=O)(=O)c1ccc2nc(NC(=O)c3ccoc3)oc2c1 (stereo not drawn) [Compound 25, [1-Benzyl-3-({2-[(furan-3-carbonyl)-amino]-benzooxazole-6-sulfonyl}-isobutyl-amino)-2-hydroxy-propyl]-carbamic acid thiazol-5-ylmethyl ester] and CC(C)CN(CC(O)C(Cc1ccccc1)NC(=O)OCc1cncs1)S(=O)(=O)c1ccc2nc(NC(=O)c3ccncc3)oc2c1 (stereo not drawn) [Compound 35, [1-Benzyl-2-hydroxy-3-(isobutyl-{2-[(pyridine-4-carbonyl)-amino]-benzooxazole-6-sulfonyl}-amino)-propyl]-carbamic acid thiazol-5-ylmethyl ester] cannot be ordered by EC50: less than 2 µM for the first, less than 2 µM for the second.

CC(C)CN(CC(O)C(Cc1ccccc1)NC(=O)OCc1cncs1)S(=O)(=O)c1ccc2nc(NC(=O)C3CCN(C)CC3)oc2c1 (stereo not drawn) [Compound 26, [1-Benzyl-2-hydroxy-3-(isobutyl-{2-[(1-methyl-piperidine-4-carbonyl)-amino]-benzooxazole-6-sulfonyl}-amino)-propyl]-carbamic acid thiazol-5-ylmethyl ester] and CC(C)CN(CC(O)C(Cc1ccccc1)NC(=O)OCc1cncs1)S(=O)(=O)c1ccc2nc(N(C)C(=O)C3CCN(C)CC3)oc2c1 (stereo not drawn) [Compound 38, [1-Benzyl-2-hydroxy-3-(isobutyl-{2-[methyl-(1-methyl-piperidine-4-carbonyl)-amino]-benzooxazole-6-sulfonyl}-amino)-propyl]-carbamic acid thiazol-5-ylmethyl ester] fall in the same range of EC50: 10 to 32 µM for the first, 10 to 32 µM for the second.

First: CC(C)CN(CC(O)C(Cc1ccccc1)NC(=O)OCc1cncs1)S(=O)(=O)c1ccc2nc(NC(=O)c3ccccn3)oc2c1 (stereo not drawn) [Compound 27, [1-Benzyl-2-hydroxy-3-(isobutyl-{2-[(pyridine-2-carbonyl)-amino]-benzooxazole-6-sulfonyl}-amino)-propyl]-carbamic acid thiazol-5-ylmethyl ester]
Second: CC(C)CN(CC(O)C(Cc1ccccc1)NC(=O)OCc1cncs1)S(=O)(=O)c1ccc2nc(N(C)C(=O)c3ccccn3)oc2c1 (stereo not drawn) [Compound 36, [1-Benzyl-2-hydroxy-3-(isobutyl-{2-[methyl-(pyridine-2-carbonyl)-amino]-benzooxazole-6-sulfonyl}-amino)-propyl]-carbamic acid thiazol-5-ylmethyl ester]
The EC50 of the first is lower: 2 to 10 µM for the first, 10 to 32 µM for the second. The first is the more potent here.

CC(C)CN(CC(O)C(Cc1ccccc1)NC(=O)OCc1cnc(Cl)s1)S(=O)(=O)c1ccc2nc(N)oc2c1 (stereo not drawn) [Compound 28, {3-[(2-Amino-benzooxazole-6-sulfonyl)-isobutyl-amino]-1-benzyl-2-hydroxy-propyl}-carbamic acid 2-chloro-thiazol-5-ylmethyl ester] and CC(C)CN(CC(O)C(Cc1ccccc1)NC(=O)OCc1cncs1)S(=O)(=O)c1ccc2nc(N)oc2c1 (stereo not drawn) [Compound 45, {3-[(2-Amino-benzooxazole-6-sulfonyl)-isobutyl-amino]-1-benzyl-2-hydroxy-propyl}-carbamic acid thiazol-5-ylmethyl ester] fall in the same range of EC50: 2 to 10 µM for the first, 2 to 10 µM for the second.

First: CC(C)CN(CC(O)C(Cc1ccccc1)NC(=O)OCc1cncs1)S(=O)(=O)c1ccc2nc(NC(=O)CN(C)C)oc2c1 (stereo not drawn) [Compound 29, (1-Benzyl-3-{[2-(2-dimethylamino-acetylamino)-benzo-oxazole-6-sulfonyl]-isobutyl-amino}-2-hydroxy-propyl)-carbamic acid thiazol-5-ylmethyl ester]
Second: CC(C)CN(CC(O)C(Cc1ccccc1)NC(=O)OCc1cncs1)S(=O)(=O)c1ccc2nc(N(C)C)oc2c1 (stereo not drawn) [Compound 33, {1-Benzyl-3-[(2-dimethylamino-benzooxazole-6-sulfonyl)-isobutyl-amino]-2-hydroxy-propyl}-carbamic acid thiazol-5-ylmethyl ester]
The EC50 of the first is lower: 2 to 10 µM for the first, 10 to 32 µM for the second.

CC(C)CN(CC(O)C(Cc1ccccc1)NC(=O)OCc1cncs1)S(=O)(=O)c1ccc2nc(N3CCNCC3)oc2c1 (stereo not drawn) [Compound 30, {1-Benzyl-2-hydroxy-3-[isobutyl-(2-piperazin-1-yl-benzo-oxazole-6-sulfonyl)-amino]-propyl}-carbamic acid thiazol-5-ylmethyl ester] and CC(C)CN(CC(O)C(Cc1ccccc1)NC(=O)OCc1cncs1)S(=O)(=O)c1ccc2nc(N3CCCCC3)oc2c1 (stereo not drawn) [Compound 31, {1-Benzyl-2-hydroxy-3-[isobutyl-(2-piperidin-1-yl-benzo-oxazole-6-sulfonyl)-amino]-propyl}-carbamic acid thiazol-5-ylmethyl ester] fall in the same range of EC50: 2 to 10 µM for the first, 2 to 10 µM for the second.

CC(C)CN(CC(O)C(Cc1ccccc1)NC(=O)OCc1cncs1)S(=O)(=O)c1ccc2nc(NC(=O)CN(C)CCN3CCCC3)oc2c1 (stereo not drawn) [Compound 32, {1-Benzyl-2-hydroxy-3-[isobutyl-(2-{2-[methyl-(2-pyrrolidin-1-yl-ethyl)-amino]-acetylamino}-benzooxazole-6-sulfonyl)-amino]-propyl}-carbamic acid thiazol-5-ylmethyl ester] and CC(C)CN(CC(O)C(Cc1ccccc1)NC(=O)OCc1cncs1)S(=O)(=O)c1ccc2nc(N(C)C(=O)C3CCCN(C)C3)oc2c1 (stereo not drawn) [Compound 37, [1-Benzyl-2-hydroxy-3-(isobutyl-{2-[methyl-(1-methyl-piperidine-3-carbonyl)-amino]-benzooxazole-6-sulfonyl}-amino)-propyl]-carbamic acid thiazol-5-ylmethyl ester] fall in the same range of EC50: 10 to 32 µM for the first, 10 to 32 µM for the second.

CC(C)CN(CC(O)C(Cc1ccccc1)NC(=O)OCc1cnco1)S(=O)(=O)c1ccc2nc(N)oc2c1 (stereo not drawn) [Compound 34, {3-[(2-Amino-benzooxazole-6-sulfonyl)-isobutyl-amino]-1-benzyl-2-hydroxy-propyl}-carbamic acid oxazol-5-ylmethyl ester] and CC(C)CN(CC(O)C(Cc1ccccc1)NC(=O)OCc1cncs1)S(=O)(=O)c1ccc2nc(N(C)C(=O)C3CCCN3C)oc2c1 (stereo not drawn) [Compound 40, [1-Benzyl-2-hydroxy-3-(isobutyl-{2-[methyl-(1-methyl-pyrrolidine-2-carbonyl)-amino]-benzooxazole-6-sulfonyl}-amino)-propyl]-carbamic acid thiazol-5-ylmethyl ester trifluoroacetate salt] fall in the same range of EC50: 10 to 32 µM for the first, 10 to 32 µM for the second.

First: CC(C)CN(CC(O)C(Cc1ccccc1)NC(=O)OCc1cncs1)S(=O)(=O)c1ccc2nc(N(C)C(=O)c3ccnc(Cl)c3)oc2c1 (stereo not drawn) [Compound 39, [1-Benzyl-3-({2-[(2-chloro-pyridine-4-carbonyl)-methyl-amino]-benzooxazole-6-sulfonyl}-isobutyl-amino)-2-hydroxy-propyl]-carbamic acid thiazol-5-ylmethyl ester]
Second: CC(C)CN(CC(O)C(Cc1ccccc1)NC(=O)OCc1cncs1)S(=O)(=O)c1ccc2ncn(CC(C)C)c2c1 (stereo not drawn) [Compound 42, {1-Benzyl-2-hydroxy-3-[isobutyl-(3-isobutyl-3H-benzo-imidazole-5-sulfonyl)-amino]-propyl}-carbamic acid thiazol-5-ylmethyl ester]
The EC50 of the first is higher: 10 to 32 µM for the first, 2 to 10 µM for the second. The second is the more potent here.

CC(C)CN(CC(O)C(Cc1ccccc1)NC(=O)OCc1cncs1)S(=O)(=O)c1ccc2ncn(CCc3ccccc3)c2c1 (stereo not drawn) [Compound 41, {1-Benzyl-2-hydroxy-3-[isobutyl-(3-phenethyl-3H-benzo-imidazole-5-sulfonyl)-amino]-propyl}-carbamic acid thiazol-5-ylmethyl ester] and Cc1nc(-c2ccc(S(=O)(=O)N(CC(C)C)CC(O)C(Cc3ccccc3)NC(=O)OCc3cncs3)cc2)co1 (stereo not drawn) [Compound 44, (1-Benzyl-2-hydroxy-3-{isobutyl-[4-(2-methyl-oxazol-4-yl)-benzenesulfonyl]-amino}-propyl)-carbamic acid thiazol-5-ylmethyl ester] fall in the same range of EC50: 10 to 32 µM for the first, 10 to 32 µM for the second.

With CC(C)CN(CC(O)C(Cc1ccccc1)NC(=O)OCc1cncs1)S(=O)(=O)c1ccc(-c2csc(Nc3ccncc3)n2)cc1 (stereo not drawn) [Compound 43, [1-Benzyl-2-hydroxy-3-(isobutyl-{4-[2-(pyridin-4-ylamino)-thiazol-4-yl]-benzenesulfonyl}-amino)-propyl]-carbamic acid thiazol-5-ylmethyl ester] the EC50 was less than 2 µM.
